Measurements: patent US12522597B2, “Methods and compositions for modulating splicing” (Skyhawk Therapeutics, Inc., priority 2019, dated 2026)

Assays:
mHTT protein = mHTT protein assay (2B7-MW1, Mesoscale Discovery); format: cell-based, human; details: GM04724 (CAG 70/20) Huntington's disease patient lymphoblast cells, 48 hours, 2B7-MW1 MSD; read-out: HTT Potency - Protein EC50 mHTT (average)
Procedure: Compounds are tested on GM04724 (CAG 70/20) Huntington's disease patient lymphoblast cells at doses ranging from 10 μM to 0.6 nM. 4,500 cells/well are seeded in 384 well plates. One plate replica is carried out for parallel viability testing by CellTiter Glo (CTG). Compounds are incubated for 48 hours, mHTT protein levels are assessed by the 2B7-MW1 assay via Mesoscale Discovery (MSD) as previously reported (Macdonald et al., 2014). The antibody pair is comprised of previously characterized monoclonals (2B7 and MW1) interrogating two regions for HTT conformation and biological properties: the N17 domain and the polyQ domain (Baldo et al., 2012; Ko et., 2001). 2B7-MW1 is dependent on subject/animal specific levels of HTT at the time of treatment. 2B7-MW1 is dependent on polyQ expansion (e.g., the higher the expansion the higher the signal) and on mHTT size (e.g., a similar polyQ will give higher signal with smaller HTT size). The viability readout is carried out by CTG according to the manufacturer's instructions.

[1] = test system: MDR1-MDCK cell monolayers; experiment: MDCK-MDR1 permeability assay (BBB penetration potential); format: in vitro ADME; details: dog, MDCK-MDR1, 120 min, 5 μM, pH 7.4
Procedure: (§1) Each determination is performed in duplicate. […] Analytical conditions are outlined below.

MDR1 = experiment: as above; format: in vitro ADME; details: dog; for efflux ratio at 120 min, 5 μM: MDCK-MDR1, pH 7.4, MDCK-MDR1: Efflux; for Papp A→B at 120 min, 5 μM: MDCK-MDR1, pH 7.4, MDCK-MDR1: Papp A-B; for Papp B→A at 120 min, 5 μM: MDCK-MDR1, pH 7.4, MDCK-MDR1: Papp B-A
Procedure: as §1

| Structure (SMILES) | EC50 (mHTT protein) [nM] | MDCK-MDR1: % Recov A-B [1] [%] | MDCK-MDR1: % Recov B-A [1] [%] | efflux ratio at 120 min, 5 μM (MDR1) | Papp A→B at 120 min, 5 μM (MDR1) [×10⁻⁶ cm/s] | Papp B→A at 120 min, 5 μM (MDR1) [×10⁻⁶ cm/s] |
| --- | --- | --- | --- | --- | --- | --- |
| Oc1cc2cccnc2cc1-c1ccc(O[C@@H]2C[C@H]3CCC[C@H](N3)[C@@H]2F)nn1 (single isomer, unassigned) [105-ENT1] | 101 to 500 | 92 | 84 | 6 | 8.12 | 47.1 |
| N#Cc1ccc(-c2ccc(O[C@@H]3C[C@H]4CCC[C@H](N4)[C@@H]3F)nn2)c(O)c1 (single isomer, unassigned) [110-ENT1] | 501 to 10000 | 101 | 100 | 13 | 5.37 | 68.2 |
| Cc1nnc(-c2ccc(-c3ccc(O[C@@H]4C[C@H]5CCC[C@H](N5)[C@@H]4F)nn3)c(O)c2)o1 (single isomer, unassigned) [94-ENT1] | 101 to 500 | 104 | 70 | 7 | 6.2 | 41.2 |
| Oc1cc(-c2nncs2)ccc1-c1ccc(O[C@H]2C[C@@H]3CC[C@@H](N3)[C@H]2F)nn1 (single isomer, unassigned) [141-ENT1] | 101 to 500 | 111 | 120 | 6 | 9.97 | 59.7 |
| Cc1cc(-c2ccc(-c3ccc(O[C@H]4C[C@@H]5CCC[C@@H](N5)[C@H]4F)nn3)c(O)c2)cs1 (single isomer, unassigned) [101-ENT2] | 16 to 50 | 20 | 53 | 1 | 0.92 | 0.55 |
| Oc1cc(-c2ccc3cncn3c2)ccc1-c1ccc(O[C@H]2C[C@@H]3CCC[C@@H](N3)[C@H]2F)nn1 (single isomer, unassigned) [85-ENT2] | 101 to 500 | 33 | 61 | 7 | 2.26 | 15.3 |
| Cn1cnc(-c2ccc(-c3ccc(O[C@H]4C[C@]5(C)CCC[C@@](C)(N5)[C@H]4F)nn3)c(O)c2)cc1=O (single isomer, unassigned) [139-ENT2] | 0.01 to 15 | 88 | 87 | 15 | 1.97 | 28.7 |
| Cc1cnc(-c2ccc(-c3ccc(O[C@H]4C[C@@H]5CCC[C@@H](N5)[C@H]4F)nn3)c(O)c2)cn1 (single isomer, unassigned) [78-ENT2] | 101 to 500 | 56 | 83 | 4 | 7.09 | 30 |
| Cc1nnc(-c2ccc(-c3ccc(O[C@@H]4C[C@H]5CCC[C@H](N5)[C@@H]4F)nn3)c(O)c2)s1 (single isomer, unassigned) [95-ENT1] | 101 to 500 | 72 | 78 | 10 | 4.88 | 48.8 |
| Oc1cc(-c2cn[nH]c2)ccc1-c1ccc(O[C@@H]2C[C@H]3CCC[C@H](N3)[C@H]2F)nn1 (single isomer, unassigned) [41-ENT2] | 16 to 50 | 66 | 74 | 8 | 4.96 | 40.9 |
| Oc1cc(-c2ccnnc2)ccc1-c1ccc(O[C@H]2C[C@@H]3CCC[C@@H](N3)[C@H]2F)nn1 (single isomer, unassigned) [87-ENT2] | 101 to 500 | 105 | 108 | 14 | 3.9 | 56.1 |
| Cc1cc(-c2ccc(-c3ccc(O[C@@H]4C[C@H]5CCC[C@H](N5)[C@@H]4F)nn3)c(O)c2)cs1 (single isomer, unassigned) [101-ENT1] | 101 to 500 | 25 | 70 | 1 | 0.86 | 0.76 |
| Cc1nc(-c2ccc(-c3ccc(O[C@@H]4C[C@H]5CCC[C@H](N5)[C@@H]4F)nn3)c(O)c2)cs1 (single isomer, unassigned) [71-ENT2] | 16 to 50 | 50 | 67 | 6 | 5.78 | 33.1 |
| Oc1cc2nccnc2cc1-c1ccc(O[C@@H]2C[C@H]3CCC[C@H](N3)[C@@H]2F)nn1 (single isomer, unassigned) [104-ENT1] | 501 to 10000 | 95 | 92 | 6 | 7.17 | 45.7 |
| O=c1cc(-c2ccc(-c3ccc(O[C@H]4C[C@@H]5CCC[C@@H](N5)[C@H]4F)nn3)c(O)c2)ccn1CF (single isomer, unassigned) [106-ENT2] | 51 to 100 | 79 | 80 | 39 | 1.45 | 56.7 |
| Oc1cc2ncccc2cc1-c1ccc(O[C@H]2C[C@@H]3CCC[C@@H](N3)[C@H]2F)nn1 (single isomer, unassigned) [103-ENT2] | 501 to 10000 | 98 | 106 | 12 | 5.15 | 59.9 |
| Oc1cc(-n2ccnn2)ccc1-c1ccc(O[C@@H]2C[C@H]3CCC[C@H](N3)[C@@H]2F)nn1 (single isomer, unassigned) [69-ENT1] | 101 to 500 | 89 | 93 | 5 | 9.2 | 47.6 |
| Cc1ccc(-c2ccc(-c3ccc(O[C@H]4C[C@@H]5CCC[C@@H](N5)[C@H]4F)nn3)c(O)c2)s1 (single isomer, unassigned) [100-ENT2] | 101 to 500 | 18 | 57 | 1 | 1.14 | 0.68 |
| Oc1cc2cccnc2cc1-c1ccc(O[C@H]2C[C@@H]3CCC[C@@H](N3)[C@H]2F)nn1 (single isomer, unassigned) [105-ENT2] | 101 to 500 | 91 | 70 | 6 | 6.58 | 37.2 |
| Cn1ccc(-c2ccc(-c3ccc(O[C@@H]4C[C@H]5CCC[C@H](N5)[C@@H]4F)nn3)c(O)c2)nc1=O (single isomer, unassigned) [107-ENT1] | 101 to 500 | 90 | 90 | 90 | 0.11 | 10 |
| Cc1cc(-c2ccc(-c3ccc(O[C@@H]4C[C@H]5CCC[C@H](N5)[C@@H]4F)nn3)c(O)c2)cnn1 (single isomer, unassigned) [90-ENT1] | 101 to 500 | 103 | 99 | 33 | 1.82 | 60.5 |
| Cn1cc(-c2ccc(-c3ccc(O[C@H]4C[C@H]5CCC[C@H](N5)[C@H]4F)nn3)c(O)c2)cn1 (single isomer, unassigned) [122-ENT1] | 501 to 10000 | 50 | 66 | 5 | 4.73 | 23.3 |
| Cc1ccc(-c2ccc(-c3ccc(O[C@@H]4C[C@H]5CCC[C@H](N5)[C@@H]4F)nn3)c(O)c2)o1 (single isomer, unassigned) [99-ENT1] | 101 to 500 | 9 | 47 | 1 | 2.07 | 2.37 |
| CNC(=O)c1ccc2cc(-c3ccc(O[C@H]4C[C@@H]5CCC[C@@H](N5)[C@H]4F)nn3)c(O)cc2n1 (single isomer, unassigned) [136-ENT1] | 0.01 to 15 | 88 | 101 | 28 | 2.27 | 62.3 |
| Oc1cc(-c2ccccn2)ccc1-c1ccc(O[C@@H]2C[C@H]3CCC[C@H](N3)[C@@H]2F)nn1 (single isomer, unassigned) [77-ENT1] | 101 to 500 | 52 | 70 | 4 | 5.64 | 22.7 |
